Data taken from patent publication US5354691A, “Polypeptides and derivatives thereof as well as their use in pharmaceutical and diagnostic compositions” (priority 1987, dated 1994).

Assays:
[1] = tested on: T-cell clones A2b and A2c; test: Stimulating activity on T-cell clones A2b and A2c, stated for both clones together; format: cell-based, rat
[2] = tested on: T-cell clone A2b; test: T-cell clone proliferation (3H-thymidine uptake, stimulation index), clone A2b; format: cell-based, rat; details: polypeptide with sequence homologous to antigen A 180-188
[3] = tested on: T-cell clones A2b and A2c; details: from European patent application 0 262 710 / EP-A-0 181 364; cited from earlier work

## RARLQLELS [lamin A and C]
[1]
  response of the T-cell clones A2b and A2c: react positively

## TFGLQPQDT [antigen from Epstein-Barr virus]
[2]
  response of T-cell clone A2b: responds

## proteoglycan protein of cartilage: proteoglycan protein of cartilage (J.Biol.Chem. 261, 3519-3535)
[3]
  recognition by / response of T-cell clones A2b and A2c: recognized
